From patent US10364263B2, “Cyclic phosphates and cyclic phosphoramidates for the treatment of neurologic disorders” (Retrophin, Inc., priority 2015, dated 2019)

Columns and labels:
[1] = Permeability in porcine brain endothelial cell blood-brain barrier model; type: in vitro ADME; settings: pig (endothelial cells), co-cultured with rat astrocytes, pH 7.4, PBECs/As blood-brain barrier model, luminal to basal; Diastereoisomer A; read-out: Papp Diastereoisomer A
Source text: Compounds disclosed herein show the potential to reach mammalian brain by crossing the blood-brain barrier (BBB) from systemic circulation. […] The porcine brain endothelial cell permeability assay is an in vitro BBB model to be used for the prediction of central nervous system (CNS) drug permeability in vivo and for ranking or prioritization of compounds according to their permeability. This system can also be used for mechanistic studies and drug delivery strategies via receptor-mediated transport (transcytosis). The system is a two-dimensional co-culture, non-contact model of two types of primary cells: primary brain endothelial cells obtained from fresh porcine brains, and primary rat astrocytes, obtained from neonatal rats. This ensures barrier formation and functional expression of key transporters.
The endothelial cells were cultured on rat-tail collagen type I and human fibronectin coated Transwell polycarbonate inserts (surface area 0.7 cm^2; pore size 0.4 μm) and the inserts were placed in 24-well plates containing confluent rat astrocytes. This system allows for the formation of a differentiated BBB model suitable for compound permeability in 10 days.
On the day of the experiment, culture medium was removed and cells were pre-incubated for 30 min with HBSS containing 20 mM Hepes pH 7.4 and 0.1% BSA. Donor volume (apical) was 400 μl and receiver volume (basal) 900 μl. Compounds were diluted in assay medium (at the desired concentration) and added to the luminal side (to mimic blood to brain passage). Transport was measured usually after 60 min by detecting the amount of compound from the basal (brain side). The integrity of the cell layers was assessed by measuring the transendothelial electrical resistance (TEER) and by monitoring FITC-dextran (40 KDa) permeation. Inserts with TEER values […] were selected for permeability studies. As FITC-dextran cannot freely permeate lipophilic barriers, a high degree of FITC-dextran transport indicates poor integrity of the cell layer and wells with high FITC-dextran permeability were excluded. FITC-dextran was included as internal control in each insert used for permeability studies. Fluorescence was measured using a fluorimetric detector. Radioactivity was measured by scintillation counting. For LC-MS/MS analysis, aliquots (200 μl) from the basal compartment were diluted with an equal volume of 100% acetonitrile containing 0.1% formic acid, centrifuged to remove cell debris, and evaporated under N2. After reconstitution, samples were analyzed by LC-MS/MS. Mass balance was determined considering the amount of compound recovered in the donor and receiver chamber at the end of the assay relative to the amount added to the donor chamber at time 0.
Permeability was defined as the apparent permeability coefficient (Papp), which is a measure of the appearance rate of the compound in the receiver chamber, expressed in cm/s. Papp is calculated according the following equation: Papp[cm/sec]=Vd*ΔMr/A*Md*Δt, Equation 2: where
Vd=volume in the donor compartment in cm^3 or mL;
ΔMr=total amount of compound in the receiver compartment after t seconds;
Md=donor amount (added at time 0)
Δt=time measured in seconds
A=filter area in cm^2 (for 24 well plate, A=0.7 cm^2).
To correct for the contribution of filter and substrate, Papp was also determined for the cell-free system. Permeability of the endothelial cell layer was determined using the following equation: […], Equation 3: where
Ptotal=the P of the total system,
Pf=P for the cell-free filter, and
Pe=P for the endothelial cell layer alone. In this equation, the total resistance of the system towards passage of a substance is additively composed of two […] resistances: that of the cell monolayer and that of the filter.

physchem = settings: buffer, phosphate buffered saline, 10 mM phosphate buffer pH 7.5, 37° C.
[2] = Stability in mouse hepatocytes; type: in vitro ADME
[3] = Stability in human hepatocytes; type: in vitro ADME; settings: for half-life: Diastereoisomer A (upfield shift in 31P NMR), 5 μM, 1 million cells/ml, 37° C., human hepatocytes, read-out: t1/2, Human Hepatocytes, Diastereoisomer A (converted); for half-life at 5 µM: t1/2, Human Hepatocytes
[4] = tested on: PANK2 silenced human neuroblastoma IMR32 cells (PANK2−/−); test: Coenzyme A assay in PANK2 silenced cells (LC-MS quantification of free CoA); type: cell-based; settings: compound added twice (24 h + 24 h), relative to 0.1% DMSO controls
Method in brief: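 Free intracellular CoA was measured by positive-mode LC-MS/MS of 20% TFA extracts, taking 2 μl per 10^6 cells as intracellular volume. Cells were IMR32 with stable lentiviral PANK2 knockdown, dosed twice 24 h apart (48 h total, 0.1% DMSO). Output is fold increase over vehicle.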

[5] = Chemical stability in aqueous solution (phosphate buffered saline, NMR); settings: 10 mM phosphate buffer pH 7.5, 37° C.
[6] = Stability in human plasma; type: in vitro ADME; settings: human, plasma, 37° C.
Method in brief: (§1)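 Test compound at 3 μM (0.1% DMSO) was incubated in mouse or human plasma at 37 °C and sampled in duplicate at 0, 10, 20, 30, 40 and 60 min. Reactions were stopped with acetonitrile/formic acid containing internal standard. Remaining parent was measured by UPLC-MS/MS without a calibration curve.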

[7] = Stability in mouse plasma; type: in vitro ADME; settings: mouse, plasma; for t1/2, Mouse Plasma, Diastereoisomer B: 3 µM
Method in brief: as §1

[8] = pH 7.5, t1/2 (h) Diastereoisomer A, Diastereoisomer A = upfield shift in the 31P NMR
[9] = Diastereoisomer A (upfield shift in 31P NMR), 5 μM, 1 million cells/ml, 37° C., mouse hepatocytes, read-out: t1/2, Mouse Hepatocytes, Diastereoisomer A (converted)
[10] = pH 7.5, t1/2 (h) Diastereoisomer B, Diastereoisomer B
[11] = Diastereoisomer A (upfield shift in 31P NMR), read-out: t1/2, Human Plasma, Diastereoisomer A (converted)
[12] = Diastereoisomer B, read-out: t1/2, Human Plasma, Diastereoisomer B (converted)
[13] = t1/2, Mouse Hepatocytes, Diastereoisomer A
[14] = t1/2, Mouse Hepatocytes, Diastereoisomer B

half-life at 1 mM [5, 8] | half-life at 1 mM [5, 10] | half-life at 5 µM [2, 13] | half-life at 5 µM [2, 14] | half-life at 5 µM ([3]; Diastereoisomer A) | half-life at 5 µM ([3]; Diastereoisomer B) | SMILES | half-life (physchem; [8]) | PANK2−/− CoA (Fold Increase): fold increase in Coenzyme A (CoA) levels relative to controls [4] | half-life (physchem; [10]) | other results
– | – | – | – | – | – | COC(=O)CCNC(=O)[C@@H]1O[P@@](=O)(NCc2ccccc2)OCC1(C)C [Compound No. 115, Methyl 3-((2R,4R)-2-(benzylamino)-5,5-dimethyl-2-oxido-1,3,2-dioxaphosphinane-4-carboxamido)propanoate] | > 60 h | – | – | Papp A→B at 60 min [1]: 40.3 nm/s; half-life at 5 µM [2, 9]: < 0.25 h; half-life [3]: 0.64 h
– | – | – | – | – | – | CCC(CC)COC(=O)[C@H](C)NP1(=O)OCC(C)(C)[C@H](C(=O)NCCC(=O)OC)O1 (stereo partly drawn) [compound 7, 2-ethylbutyl ((4R)-4-((3-methoxy-3-oxopropyl)carbamoyl)-5,5-dimethyl-2-oxido-1,3,2-dioxaphosphinan-2-yl)-L-alaninate] | > 40 h | 1.56 Fold Increase | – | –
4.7 h | 3.7 h | 0.37 h | 0.31 h | 1.26 h | 1.16 h | COC(=O)[C@H](C)NP1(=O)OCC(C)(C)[C@H](C(=O)NCCC(=O)OCCN2CCCC2)O1 (stereo partly drawn) [compound 19, methyl ((4R)-5,5-dimethyl-2-oxido-4-((3-oxo-3-(2-(pyrrolidin-1-yl)ethoxy)propyl)carbamoyl)-1,3,2-dioxaphosphinan-2-yl)-L-alaninate] | – | 1.73 Fold Increase | – | half-life at 3 µM [6, 11]: 0.45 h; half-life at 3 µM [6, 12]: > 1 h; half-life at 3 µM [7]: < 9.6 min; t1/2, Mouse Plasma, Diastereoisomer B [7]: <9.6 min
23.5 h | 5.1 h | – | – | – | – | COC(=O)CCNC(=O)[C@@H]1OP(=O)(OCCCN2CCOCC2)OCC1(C)C (stereo partly drawn) [compound 52, methyl 3-((4R)-5,5-dimethyl-2-(3-morpholinopropoxy)-2-oxido-1,3,2-dioxaphosphinane-4-carboxamido)propanoate] | – | 1.58 Fold Increase | – | half-life at 3 µM [6, 11]: > 1 h; half-life at 3 µM [6, 12]: > 1 h; half-life at 3 µM [7]: < 9.6 min; t1/2, Mouse Plasma, Diastereoisomer B [7]: <9.6 min
> 80 h | > 80 h | 0.28 h | < 0.25 h | 0.57 h | < 0.25 h | COC(=O)CCNC(=O)[C@@H]1OP(=O)(OCCCOCc2ccccc2)OCC1(C)C (stereo partly drawn) [compound 53, methyl 3-((4R)-2-(3-(benzyloxy)propoxy)-5,5-dimethyl-2-oxido-1,3,2-dioxaphosphinane-4-carboxamido)propanoate] | – | – | – | –
4.6 h | – | < 0.25 h | – | < 0.25 h | – | COC(=O)CCNC(=O)[C@@H]1O[P@@](=O)(OCc2ccccc2)OCC1(C)C [compound 56, methyl 3-((2S,4R)-2-(benzyloxy)-5,5-dimethyl-2-oxido-1,3,2-dioxaphosphinane-4-carboxamido)propanoate] | – | – | – | Papp A→B at 60 min [1]: 187 nm/s
80 h | 6 h | 0.34 h | < 0.25 h | 2.89 h | 1.54 h | COC(=O)CCNC(=O)[C@H](O)C(C)(C)COP1(=O)OCC(C)(C)[C@H](C(=O)NCCC(=O)OC)O1 (stereo partly drawn) [compound 59, methyl 3-((2R)-2-hydroxy-4-(((4R)-4-((3-methoxy-3-oxopropyl)carbamoyl)-5,5-dimethyl-2-oxido-1,3,2-dioxaphosphuian-2-yl)oxy)-3,3-dimethylbutanamido) propanoate] | – | 1.52 Fold Increase | – | –
– | – | – | – | – | – | COC(=O)CCNC(=O)[C@@H]1OP(N)(=O)OCC1(C)C (stereo partly drawn) [compound 114, methyl 3-((4R)-2-amino-5,5-dimethyl-2-oxido-1,3,2-dioxaphosphinane-4-carboxamido)propanoate] | > 40 h | – | > 40 h | –
– | – | – | – | – | – | COC(=O)CCNC(=O)[C@@H]1OP(=O)(NCC2CCCO2)OCC1(C)C (stereo partly drawn) [compound 116, methyl 3-((4R)-5,5-dimethyl-2-oxido-2-(((tetrahydrofuran-2-yl)methyl)amino)-1,3,2-dioxaphosphinane-4-carboxamido)propanoate] | > 40 h | – | > 40 h | –
– | – | – | – | – | – | COC(=O)CCNC(=O)[C@@H]1OP(=O)(N[C@H]2CN[C@@H](C(=O)OC)C2)OCC1(C)C (stereo partly drawn) [compound 132, methyl (2R,4R)-4-(((4R)-4-((3-methoxy-3-oxopropyl)carbamoyl)-5,5-dimethyl-2-oxido-1,3,2-dioxaphosphinan-2-yl)amino) pyrrolidine-2-carboxylate] | 4.8 h | 1.88 Fold Increase | 3.6 h | half-life at 5 µM [2, 9]: 0.91 h; half-life [3]: 2.39 h
